The values that follow come from ChEMBL document CHEMBL5532658 (Eur J Med Chem, 2024).

The test system of data set [1] is MDA-MB-453. Kind of data set: Antiproliferative activity against human MDA-MB-453 cells incubated for 120 hrs by CCK-8 assay. It is filed as functional, cell-based. Particulars: MDA-MB-453, 120 h. On the technique in general: Formazan colour is commonly taken as a measure of viable cells.
Data set [2] is described as follows: Cmax in CD1 mouse at 10 mg/kg, po measured upto 24 hrs by LC-MS/MS analysis. Format: ADME, organism-based. The settings on record: in vivo.
Data set [3] deals with MDA-MB-231. The data set is described as follows: Inhibition of RNA polymerase 2 C-terminal domain phosphorylation at Ser5 in heptad repeat in human MDA-MB-231 cells at 37 to 333 nM incubated for 24 hrs by Western blotting analysis. It is filed as cell-based. The settings on record: dose 37-333 nM. Background: In western blotting, separated proteins are transferred to a membrane and probed.

A short description of data set [4]: AUC(0 to t) in CD1 mouse at 1 mg/kg, iv measured upto 24 hrs by LC-MS/MS analysis. Format: ADME, organism-based. The settings on record: in vivo.
Data set [5] concerns MDA-MB-231. Kind of data set: Antiproliferative activity against human MDA-MB-231 cells incubated for 120 hrs by CCK-8 assay. Format: functional, cell-based. The settings on record: MDA-MB-231, 120 h.
In data set [6] the test system is MDA-MB-453. Kind of data set: Downregulation of Rb protein phosphorylation at Thr821 in human MDA-MB-453 cells incubated for 24 hrs by Western blot analysis. Format: functional, cell-based. The settings on record: dose 37-333 nM.
In data set [7] the test system is MDA-MB-231. The data set is described as follows: Inhibition of RNA polymerase 2 C-terminal domain phosphorylation at Ser7 in heptad repeat in human MDA-MB-231 cells at 37 to 333 nM incubated for 24 hrs by Western blotting analysis. Format: cell-based. The settings on record: dose 37-333 nM.
The nature of data set [8]: Toxicity in Balb/c mouse xenografted with human MDA-MB-231 cells assessed as change in body weight at 5 to 10 mg/kg po administered once daily for 21 days and measured every three days. It is filed as organism-based. Particulars: in vivo, 504 h, dose 5-10 mg/kg, time 21 day. In general terms: A xenograft is tissue or cells of one species grown in another, often human tumour cells in immunodeficient mice.

For data set [9], the system named is MDA-MB-231. The data set is described as follows: Downregulation of Rb protein phosphorylation at Ser795 in human MDA-MB-231 cells incubated for 24 hrs by Western blot analysis. Format: functional, cell-based. The settings on record: dose 37-333 nM.
The subject of data set [10] is MDA-MB-231. The data set is described as follows: Downregulation of Rb protein phosphorylation at Ser807 in human MDA-MB-231 cells incubated for 24 hrs by Western blot analysis. It is filed as functional, cell-based. The settings on record: dose 37-333 nM.
For data set [11], the system named is MDA-MB-453. Kind of data set: Downregulation of Rb protein phosphorylation at Ser795 in human MDA-MB-453 cells incubated for 24 hrs by Western blot analysis. It is filed as functional, cell-based. Particulars: dose 37-333 nM.
The subject of data set [12] is MDA-MB-453. Kind of data set: Downregulation of Rb protein phosphorylation at Thr826 in human MDA-MB-453 cells incubated for 24 hrs by Western blot analysis. Particulars: dose 37-333 nM. It is filed as functional, cell-based.
A short description of data set [13]: Half life in CD1 mouse at 1 mg/kg, iv measured upto 24 hrs by LC-MS/MS analysis. Format: ADME, organism-based. The settings on record: in vivo.
Data set [14] relates to MDA-MB-231. The data set is described as follows: Downregulation of Rb protein phosphorylation at Ser608 in human MDA-MB-231 cells incubated for 24 hrs by Western blot analysis. Format: functional, cell-based. The settings on record: dose 37-333 nM.
Data set [15] has as its system MDA-MB-231. Kind of data set: Induction of cell cycle arrest in human MDA-MB-231 cells assessed as G0/G1 phase arrest at 12.3 to 1000 nM incubated for 24 hrs by PI staining based flow cytometry analysis. Particulars: dose 12.3-1000 nM. It is filed as functional.
In data set [16] the target is Cyclin-dependent kinase 18 (Homo sapiens) (UniProt Q07002). The data set is described as follows: Inhibition of CDK18 (unknown origin) at 1 uM by discoverX kinomescan assay.
The subject of data set [17] is MDA-MB-231. The data set is described as follows: Downregulation of Rb protein phosphorylation at Thr826 in human MDA-MB-231 cells incubated for 24 hrs by Western blot analysis. It is filed as functional, cell-based. Particulars: dose 37-333 nM.
In data set [18] the target is T1, Dual specificity mitogen-activated protein kinase kinase 5 (Homo sapiens, UniProt Q13163).
T1 sequence (Q13163 whole entry): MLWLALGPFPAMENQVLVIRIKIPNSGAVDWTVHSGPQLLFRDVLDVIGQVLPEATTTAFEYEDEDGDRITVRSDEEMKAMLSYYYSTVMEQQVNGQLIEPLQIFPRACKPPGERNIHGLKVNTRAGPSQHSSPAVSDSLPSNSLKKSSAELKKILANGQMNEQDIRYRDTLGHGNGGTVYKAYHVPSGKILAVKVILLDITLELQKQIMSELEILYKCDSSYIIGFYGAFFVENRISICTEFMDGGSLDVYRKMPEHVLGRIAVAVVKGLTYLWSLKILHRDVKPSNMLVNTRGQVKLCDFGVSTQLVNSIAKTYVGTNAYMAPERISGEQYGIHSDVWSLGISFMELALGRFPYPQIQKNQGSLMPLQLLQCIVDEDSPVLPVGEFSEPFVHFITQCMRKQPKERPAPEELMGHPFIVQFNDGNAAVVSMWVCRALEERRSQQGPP
The data set is described as follows: Inhibition of MAP2K5 (unknown origin) by discoverX kinomescan assay.

The target in data set [19] is T2, Mitogen-activated protein kinase 15 (Homo sapiens) (UniProt Q8TD08).
T2 sequence (whole entry): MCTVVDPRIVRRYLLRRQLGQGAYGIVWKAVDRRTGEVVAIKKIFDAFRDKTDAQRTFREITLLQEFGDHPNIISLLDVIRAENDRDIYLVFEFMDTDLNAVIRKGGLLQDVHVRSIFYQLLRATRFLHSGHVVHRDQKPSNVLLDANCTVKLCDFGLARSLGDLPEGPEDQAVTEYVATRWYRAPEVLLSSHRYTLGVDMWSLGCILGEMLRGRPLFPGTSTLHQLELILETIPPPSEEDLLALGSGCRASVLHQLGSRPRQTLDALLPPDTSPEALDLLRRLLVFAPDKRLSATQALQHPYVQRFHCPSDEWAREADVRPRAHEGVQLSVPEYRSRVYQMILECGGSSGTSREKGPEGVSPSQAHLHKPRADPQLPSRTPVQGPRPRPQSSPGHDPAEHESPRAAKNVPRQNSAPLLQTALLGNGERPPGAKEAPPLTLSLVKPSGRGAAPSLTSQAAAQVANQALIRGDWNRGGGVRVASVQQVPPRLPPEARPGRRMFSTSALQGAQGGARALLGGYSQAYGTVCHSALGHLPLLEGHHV
Kind of data set: Inhibition of ERK7 (unknown origin) at 1 uM by discoverX kinomescan assay.

Calls of active or inactive are those of the source. The rule behind the calls is not given here.

Chain of Cyclin-dependent kinase 18 (Homo sapiens) (Q07002 whole entry): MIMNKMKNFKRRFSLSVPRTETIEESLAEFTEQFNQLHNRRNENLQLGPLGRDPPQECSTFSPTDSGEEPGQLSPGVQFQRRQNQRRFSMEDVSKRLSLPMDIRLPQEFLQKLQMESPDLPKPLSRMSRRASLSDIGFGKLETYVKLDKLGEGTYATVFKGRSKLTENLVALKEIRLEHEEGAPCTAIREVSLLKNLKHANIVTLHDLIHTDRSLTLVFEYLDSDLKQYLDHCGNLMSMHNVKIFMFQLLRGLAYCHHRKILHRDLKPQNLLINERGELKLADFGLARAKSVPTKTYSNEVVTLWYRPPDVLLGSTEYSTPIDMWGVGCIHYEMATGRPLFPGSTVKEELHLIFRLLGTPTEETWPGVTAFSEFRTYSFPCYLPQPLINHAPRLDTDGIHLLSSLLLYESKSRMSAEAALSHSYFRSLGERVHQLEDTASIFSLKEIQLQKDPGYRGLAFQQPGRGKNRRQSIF

Take `CP(C)(=O)c1c(C#N)ccc2c(-c3nc(N[C@@H]4CNC[C@@H](F)C4)nc4ccsc34)c[nH]c12`: the EC50 in the data set with MDA-MB-453 [1] worked out at 150 nM; in the data set with MDA-MB-231 [5], 320 nM. Besides, in data set [2], the maximum concentration (Cmax) is 117 ng/mL. Besides, the inhibition result with MDA-MB-231 [3] and with MDA-MB-231 [7] was “Active” throughout. This compound also yielded an AUC(0-t) at 24 h in data set [4] of 230 ng·h/mL. Moreover, the Activity entry with MDA-MB-453 [6] was “Dose-Dependent Effect”; in data set [8], “Non-Toxic”; in the data set with MDA-MB-231 [9] it was “Dose-Dependent Effect”; in the data set with MDA-MB-231 [10], “Dose-Dependent Effect”; in the data set with MDA-MB-453 [11], “Dose-Dependent Effect”; with MDA-MB-453 [12] it was “Dose-Dependent Effect”. In addition, the Activity entry in the data set with MDA-MB-231 [14] and in the data set with MDA-MB-231 [17] was “Dose-Dependent Effect” throughout. The same compound showed a half-life in data set [13] of 114 min. Besides, the outcome in the data set with MDA-MB-231 [15] was Active. The inhibition result in [16] and in data set [19] was “inactive” throughout. Further, in data set [18], the IC50 turned out to be 170 nM.

What is called EC50 is the midpoint of the concentration-response curve. What is called Cmax is the maximum level reached in the sampled fluid or tissue. For orientation: AUC(0-t) means the area under the concentration-time curve up to a stated or last time point. Low readings indicate less exposure, high ones more exposure. One may read the half-life as the time in which the quantity being followed falls by half. A high value points to slow loss. For orientation: IC50 means the concentration at which inhibition is half-maximal. The low end stands for greater potency, the high end for weaker potency.
